{"source": "patent US20180352841A1", "about": "“COMPOSITION HAVING RICH-TASTE IMPARTING FUNCTION” (AJINOMOTO CO., INC., priority 2016, published 2018)", "key": {"[1]": {"assay": "Organoleptic evaluation of coffee-like thickness in milk coffee with 0.2 ppm γ-Glu-Val-Gly (Example 1)", "settings": "for Coffee-like thickness (initial taste) / Coffee-like thickness (middle to aftertaste): milk coffee + 0.2 ppm γ-Glu-Val-Gly (control sample = score 0); for Coffee-like thickness (initial taste): 0 to 1 second after drinking, score 0 to 3 (0 no effect, 1 weakly effective, 2 effective, 3 strongly effective), 2 to 4 panelists, ingredient ppm: succinic acid 5, proline 12.5, KH2PO4 3, K2HPO4 12.5, L-tartaric acid 6, adipic acid 25, citric acid 3.5, CaCl2 50, MgCl2 12.5, DL-malic acid 3, trisodium citrate 0.8, sodium fumarate 1.5; for Coffee-like thickness (middle to aftertaste): 1 to 5 seconds after drinking, score 0 to 3, ingredient ppm as in Table 1 c0 (succinic acid 5, proline 12.5, KH2PO4 3, K2HPO4 12.5, L-tartaric acid 6, adipic acid 25, citric acid 3.5, CaCl2 50, MgCl2 12.5, DL-malic acid 3, trisodium citrate 0.8, sodium fumarate 1.5); for Thickness-enhancing effect for the initial taste: milk coffee + 0.2 ppm γ-Glu-Val-Gly, summary of Table 1", "procedure": "As an evaluation system, milk coffee (“Birdy Robusta”, Ajinomoto Co., (Thailand) Ltd.) was used. To this milk coffee, 0.2 ppm of γ-Glu-Val-Gly was added, to prepare a control sample.\nOrganoleptic evaluation was performed by 2 to 4 persons of special panelists for strength of “coffee-like thickness” of each sample, to determine thickness-enhancing effects (thickness-boosting effect) of the ingredients to be evaluated."}, "[2]": {"assay": "Organoleptic evaluation of coffee-like thickness in milk coffee with 0.8 ppm γ-Glu-Abu (Example 3)", "settings": "for thickness-enhancing effect for initial taste: milk coffee + 0.8 ppm γ-Glu-Abu, summary of Table 3; for Coffee-like thickness (initial taste) / Coffee-like thickness (middle to aftertaste): milk coffee + γ-Glu-Abu 0.8 ppm (control = score 0), score 0 to 3, L-tartaric acid 6 ppm, adipic acid 25 ppm, citric acid 3.5 ppm; for Coffee-like thickness (initial taste): 0 to 1 second; for Coffee-like thickness (middle to aftertaste): 1 to 5 seconds", "procedure": "(§1) Organoleptic evaluation was performed by 2 to 4 persons of special panelists for strength of “coffee-like thickness” of each sample, to determine thickness-enhancing effects (thickness-boosting effect) of the ingredients to be evaluated. The organoleptic evaluation was performed by a four grade scoring method for initial taste, middle taste, and aftertaste (sensed in the periods of 0 to 1 second, 1 to 3 seconds, and 3 to 5 seconds after drinking, respectively, which periods are defined for a liquid) with scores of 0 to 3, wherein score 0 means no effect (i.e. strength of the thickness is the same as that of the control sample), score 1 means weakly effective, score 2 means effective, and score 3 means strongly effective.\n(§2) As an evaluation system, milk coffee (“Birdy Robusta”, Ajinomoto Co., (Thailand) Ltd.) was used.\n(§3) Organoleptic evaluation was performed for strength of “coffee-like thickness” of each sample by 2 persons of special panelists with the same criteria as those of Example 1 wherein score 0 was defined to mean the strength of thickness of each control sample, to determine thickness-enhancing effects (thickness-boosting effects) of the ingredients to be evaluated."}, "[3]": {"assay": "Organoleptic evaluation of salty taste-like thickness in potage soup with 2 ppm γ-Glu-Val-Gly (Example 2)", "settings": "for Salty taste-like thickness (initial taste) / Salty taste-like thickness (middle to aftertaste): potage soup + 2 ppm γ-Glu-Val-Gly (control = score 0), score 0 to 3, L-tartaric acid 6 ppm, adipic acid 25 ppm, citric acid 2 ppm; for Salty taste-like thickness (initial taste): 0 to 1 second; for Salty taste-like thickness (middle to aftertaste): 1 to 5 seconds"}, "[4]": {"assay": "Organoleptic evaluation of thickness in cookie with 5 ppm γ-Glu-Val-Gly (Example 4)", "settings": "for Thickness-enhancing effect for the initial taste: cookie with 5 ppm γ-Glu-Val-Gly, text summary of Table 4; for Thickness (initial taste) / Thickness (middle to aftertaste): cookie, γ-Glu-Val-Gly 5 ppm in dough (control = score 0), score 0 to 3, L-tartaric acid 5 ppm, sodium L-tartrate 2 ppm, adipic acid 20 ppm, citric acid 1 ppm; for Thickness (initial taste): 0 to 4 seconds after eating; for Thickness (middle to aftertaste): 4 to 15 seconds after eating", "procedure": "Organoleptic evaluation was performed by 2 persons of special panelists for strength of “thickness” of each sample, to determine thickness-enhancing effects (thickness-boosting effect) of the ingredients to be evaluated. The organoleptic evaluation was performed by a four grade scoring method for initial taste, middle taste, and aftertaste (sensed in the periods of 0 to 4 second, 4 to 10 seconds, and 10 to 15 seconds after eating, respectively, which periods are defied for a solid) with scores of 0 to 3, wherein score 0 means no effect (i.e. strength of the thickness is the same as that of the control sample, score 1 means weakly effective, score 2 means effective, and score 3 means strongly effective."}, "[5]": {"assay": "Organoleptic evaluation of coffee-like thickness in milk coffee with 0.6 ppm γ-Glu-Abu-Gly (Example 3)", "settings": "for thickness-enhancing effect for initial taste: milk coffee + 0.6 ppm γ-Glu-Abu-Gly, summary of Table 3; for Coffee-like thickness (initial taste) / Coffee-like thickness (middle to aftertaste): milk coffee + γ-Glu-Abu-Gly 0.6 ppm (control = score 0), score 0 to 3, L-tartaric acid 6 ppm, adipic acid 25 ppm, citric acid 3.5 ppm; for Coffee-like thickness (initial taste): 0 to 1 second; for Coffee-like thickness (middle to aftertaste): 1 to 5 seconds", "procedure": "as §1, §2, §3"}, "[6]": {"assay": "Organoleptic evaluation of thickness in carbonated lemon drink with 15 ppm γ-Glu-Val-Gly (Example 2)", "settings": "for Thickness (initial taste) / Thickness (middle to aftertaste): carbonated lemon drink + 15 ppm γ-Glu-Val-Gly (control = score 0), score 0 to 3, L-tartaric acid 24 ppm, adipic acid 50 ppm, citric acid 3.5 ppm; for Thickness (initial taste): 0 to 1 second; for Thickness (middle to aftertaste): 1 to 5 seconds"}, "[7]": {"settings": "potage soup + 2 ppm γ-Glu-Val-Gly, Table 2"}, "[8]": {"settings": "carbonated lemon drink + 15 ppm γ-Glu-Val-Gly, Table 2"}}}
{"smiles": "O=C(O)CC(O)C(=O)O", "note": "(racemic) [DL-Malic acid]", "values": [{"measurement": "Coffee-like thickness (initial taste)", "setting": "[1]", "result": 0}, {"measurement": "Coffee-like thickness (middle to aftertaste)", "setting": "[1]", "result": 0}]}
{"smiles": "O=C(O)CCCCC(=O)O", "note": "[Adipic acid]", "values": [{"measurement": "thickness-enhancing effect for initial taste", "setting": "[2]", "result": "observed"}, {"measurement": "Coffee-like thickness (initial taste)", "setting": "[2]", "result": 1.0}, {"measurement": "Coffee-like thickness (middle to aftertaste)", "setting": "[2]", "result": 0.5}, {"measurement": "Salty taste-like thickness (initial taste)", "setting": "[3]", "result": 1.3}, {"measurement": "Salty taste-like thickness (middle to aftertaste)", "setting": "[3]", "result": 0}, {"measurement": "thickness-enhancing effect for initial taste", "setting": "[3]; [7]", "result": "observed"}, {"measurement": "Thickness-enhancing effect for the initial taste", "setting": "[4]", "result": "observed"}, {"measurement": "Thickness (initial taste)", "setting": "[4]", "result": 1.2}, {"measurement": "Thickness (middle to aftertaste)", "setting": "[4]", "result": 1.0}, {"measurement": "thickness-enhancing effect for initial taste", "setting": "[5]", "result": "observed"}, {"measurement": "Coffee-like thickness (initial taste)", "setting": "[5]", "result": 1.0}, {"measurement": "Coffee-like thickness (middle to aftertaste)", "setting": "[5]", "result": 1.0}, {"measurement": "Thickness (initial taste)", "setting": "[6]", "result": 1.5}, {"measurement": "Thickness (middle to aftertaste)", "setting": "[6]", "result": 0}, {"measurement": "thickness-enhancing effect for initial taste", "setting": "[6]; [8]", "result": "observed"}, {"measurement": "Coffee-like thickness (initial taste)", "setting": "[1]", "result": 1.0}, {"measurement": "Coffee-like thickness (middle to aftertaste)", "setting": "[1]", "result": 0}, {"measurement": "Thickness-enhancing effect for the initial taste", "setting": "[1]", "result": "observed"}]}
{"smiles": "[Ca+2].[Cl-].[Cl-]", "note": "[Calcium chloride]", "values": [{"measurement": "Coffee-like thickness (initial taste)", "setting": "[1]", "result": 0}, {"measurement": "Coffee-like thickness (middle to aftertaste)", "setting": "[1]", "result": 0}]}
{"smiles": "O=C(O)CC(O)(CC(=O)O)C(=O)O", "note": "[Citric acid, reference compound]", "values": [{"measurement": "Coffee-like thickness (initial taste)", "setting": "[2]", "result": 0}, {"measurement": "Coffee-like thickness (middle to aftertaste)", "setting": "[2]", "result": 0}, {"measurement": "Salty taste-like thickness (initial taste)", "setting": "[3]", "result": 0}, {"measurement": "Salty taste-like thickness (middle to aftertaste)", "setting": "[3]", "result": 0}, {"measurement": "thickness-enhancing effect", "setting": "[3]; [7]", "result": "not observed"}, {"measurement": "Thickness (initial taste)", "setting": "[4]", "result": 0}, {"measurement": "Thickness (middle to aftertaste)", "setting": "[4]", "result": 0}, {"measurement": "Coffee-like thickness (initial taste)", "setting": "[5]", "result": 0}, {"measurement": "Coffee-like thickness (middle to aftertaste)", "setting": "[5]", "result": 0}, {"measurement": "Thickness (initial taste)", "setting": "[6]", "result": 0}, {"measurement": "Thickness (middle to aftertaste)", "setting": "[6]", "result": 0}, {"measurement": "thickness-enhancing effect", "setting": "[6]; [8]", "result": "not observed"}, {"measurement": "Coffee-like thickness (initial taste)", "setting": "[1]", "result": 0}, {"measurement": "Coffee-like thickness (middle to aftertaste)", "setting": "[1]", "result": 0}]}
{"smiles": "O=P([O-])([O-])O.[K+].[K+]", "note": "[Dipotassium hydrogenphosphate]", "values": [{"measurement": "Coffee-like thickness (initial taste)", "setting": "[1]", "result": 0}, {"measurement": "Coffee-like thickness (middle to aftertaste)", "setting": "[1]", "result": 1.0}]}
{"smiles": "O=C(O)[C@H](O)[C@@H](O)C(=O)O", "note": "[L-Tartaric acid]", "values": [{"measurement": "thickness-enhancing effect for initial taste", "setting": "[2]", "result": "observed"}, {"measurement": "Coffee-like thickness (initial taste)", "setting": "[2]", "result": 1.5}, {"measurement": "Coffee-like thickness (middle to aftertaste)", "setting": "[2]", "result": 0}, {"measurement": "Salty taste-like thickness (initial taste)", "setting": "[3]", "result": 1.3}, {"measurement": "Salty taste-like thickness (middle to aftertaste)", "setting": "[3]", "result": 0}, {"measurement": "thickness-enhancing effect for initial taste", "setting": "[3]; [7]", "result": "observed"}, {"measurement": "Thickness-enhancing effect for the initial taste", "setting": "[4]", "result": "observed"}, {"measurement": "Thickness (initial taste)", "setting": "[4]", "result": 1.5}, {"measurement": "Thickness (middle to aftertaste)", "setting": "[4]", "result": 1.0}, {"measurement": "thickness-enhancing effect for initial taste", "setting": "[5]", "result": "observed"}, {"measurement": "Coffee-like thickness (initial taste)", "setting": "[5]", "result": 1.5}, {"measurement": "Coffee-like thickness (middle to aftertaste)", "setting": "[5]", "result": 0}, {"measurement": "Thickness (initial taste)", "setting": "[6]", "result": 1.0}, {"measurement": "Thickness (middle to aftertaste)", "setting": "[6]", "result": 0}, {"measurement": "thickness-enhancing effect for initial taste", "setting": "[6]; [8]", "result": "observed"}, {"measurement": "Coffee-like thickness (initial taste)", "setting": "[1]", "result": 1.5}, {"measurement": "Coffee-like thickness (middle to aftertaste)", "setting": "[1]", "result": 0}, {"measurement": "Thickness-enhancing effect for the initial taste", "setting": "[1]", "result": "observed"}]}
{"smiles": "[Cl-].[Cl-].[Mg+2]", "note": "[Magnesium chloride]", "values": [{"measurement": "Coffee-like thickness (initial taste)", "setting": "[1]", "result": 0}, {"measurement": "Coffee-like thickness (middle to aftertaste)", "setting": "[1]", "result": 0}]}
{"smiles": "O=P([O-])(O)O.[K+]", "note": "[Potassium dihydrogenphosphate]", "values": [{"measurement": "Coffee-like thickness (initial taste)", "setting": "[1]", "result": 0}, {"measurement": "Coffee-like thickness (middle to aftertaste)", "setting": "[1]", "result": 0.5}]}
{"smiles": "O=C(O)[C@@H]1CCCN1", "note": "[Proline]", "values": [{"measurement": "Coffee-like thickness (initial taste)", "setting": "[1]", "result": 0}, {"measurement": "Coffee-like thickness (middle to aftertaste)", "setting": "[1]", "result": 1.5}]}
{"smiles": "O=C([O-])[C@H](O)[C@@H](O)C(=O)[O-].[Na+].[Na+]", "note": "[Sodium L-tartrate]", "values": [{"measurement": "Thickness (initial taste)", "setting": "[4]", "result": 0.7}, {"measurement": "Thickness (middle to aftertaste)", "setting": "[4]", "result": 0.5}]}
{"smiles": "O=C([O-])/C=C/C(=O)[O-].[Na+].[Na+]", "note": "[Sodium fumarate]", "values": [{"measurement": "Coffee-like thickness (initial taste)", "setting": "[1]", "result": 0}, {"measurement": "Coffee-like thickness (middle to aftertaste)", "setting": "[1]", "result": 0}]}
{"smiles": "O=C(O)CCC(=O)O", "note": "[Succinic acid]", "values": [{"measurement": "Coffee-like thickness (initial taste)", "setting": "[1]", "result": 0}, {"measurement": "Coffee-like thickness (middle to aftertaste)", "setting": "[1]", "result": 2.5}]}
{"smiles": "O=C([O-])CC(O)(CC(=O)[O-])C(=O)[O-].[Na+].[Na+].[Na+]", "note": "[Trisodium citrate]", "values": [{"measurement": "Coffee-like thickness (initial taste)", "setting": "[1]", "result": 0}, {"measurement": "Coffee-like thickness (middle to aftertaste)", "setting": "[1]", "result": 0}]}
